Results as given in ChEMBL document CHEMBL1133037, “The design, synthesis and physical chemical properties of novel human vasopressin V2-receptor antagonists optimized for parenteral delivery” (Bioorg Med Chem Lett, 2000).
In brackets after ≈: the same amount, converted by molar mass. Activity calls are given as the source filed them. The calls are words filed in the database; no cut-off is given here.

How the values were obtained:
Vasopressin V2 receptor = Vasopressin V2 receptor (Homo sapiens, UniProt P30518); assay: Displacement of [3H]AVP from human vasopressin V2-receptor expressed in murine fibroblast cell (LV2) membranes; format: cell-based
[1] = Compound was tested for solubility in a model parenteral system consisting of 30% poltethylene glycol 200 (PEG-200)/water; format: ADME; conditions: read-out: S
Rattus norvegicus [2] = assay: Ratio of rat urine volume collected from treatment group (10 mg/kg perorally) after 4 hours versus control group was determined; format: functional
Rattus norvegicus [3] = assay: Ratio of rat urine volume collected from treatment group (3 mg/kg perorally) after 4 hours versus control group was determined; format: functional
[4] = Compound was tested for solubility in a model parenteral system consisting of 30% poltethylene glycol 200 (PEG-200)/water (*, mixture of amophorus and crystalline material); format: ADME; conditions: read-out: S
Rattus norvegicus [5] = assay: Ratio of rat urine volume collected from treatment group (1 mg/kg perorally) after 4 hours versus control group was determined; format: functional
Rattus norvegicus [6] = assay: Ratio of urine volume collected from treatment group (10 mg/kg perorally) after 4 hours versus control group was determined; No effect; format: functional, organism-based

Sequence of Vasopressin V2 receptor (P30518 whole entry): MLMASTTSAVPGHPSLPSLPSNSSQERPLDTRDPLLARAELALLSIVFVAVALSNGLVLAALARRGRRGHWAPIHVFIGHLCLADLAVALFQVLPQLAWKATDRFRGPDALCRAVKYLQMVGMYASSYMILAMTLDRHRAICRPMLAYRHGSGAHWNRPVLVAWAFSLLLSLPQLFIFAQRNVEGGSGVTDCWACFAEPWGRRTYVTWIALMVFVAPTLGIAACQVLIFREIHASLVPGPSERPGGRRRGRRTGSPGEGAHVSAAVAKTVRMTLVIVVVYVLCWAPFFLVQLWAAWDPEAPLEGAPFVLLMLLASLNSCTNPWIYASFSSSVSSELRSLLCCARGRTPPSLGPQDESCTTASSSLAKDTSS

Structure (SMILES)	IC50 (Vasopressin V2 receptor)	Ratio (Rattus norvegicus [2])	also measured
COc1cc(C(=O)N2Cc3ccc(CN(C)C)n3Cc3ccccc32)ccc1NC(=O)c1ccccc1-c1ccccc1	5.2 nM	5	solubility [1]: 2200 µg/mL (≈ 3850 µM)
COc1cc(NC(=O)c2ccccc2-c2ccccc2)ccc1C(=O)N1Cc2ccc(CN3CCN(C)CC3)n2Cc2ccccc21	7 nM	7.8	solubility [1]: 300 µg/mL (≈ 479 µM)
O=C(Nc1ccc(C(=O)N2Cc3ccc(CN4CCC(N5CCCCC5)CC4)n3Cc3ccccc32)c(Cl)c1)c1ccccc1-c1ccccc1	2.1 nM	1.5	–
CN(C)Cc1ccc2n1Cc1ccccc1N(C(=O)c1ccc(NC(=O)c3ccccc3-c3ccccc3)cc1Cl)C2	7.5 nM	6.6	Ratio (Rattus norvegicus [3]): 5.6; solubility [4]: 720 µg/mL (≈ 1250 µM); Ratio (Rattus norvegicus [5]): 2.3
CN1CCN(C2CCN(C(=O)c3ccc4n3Cc3ccccc3N(C(=O)c3ccc(NC(=O)c5ccccc5-c5ccccc5)cc3Cl)C4)CC2)CC1.Cl	–	2.7	–
Cc1ccc(F)cc1C(=O)Nc1ccc(C(=O)N2Cc3ccc(CN(C)C)n3Cc3ccccc32)c(Cl)c1	–	–	Ratio (Rattus norvegicus [3]): 1.4; Ratio (Rattus norvegicus [5]): 1.4
CN1CCN(C(=O)c2ccc3n2Cc2ccccc2N(C(=O)c2ccc(NC(=O)c4ccccc4-c4ccccc4)cc2Cl)C3)CC1.O=C(O)CC(O)(CC(=O)O)C(=O)O	–	–	solubility [1]: 1700 µg/mL
CN(C)Cc1ccc2n1Cc1ccccc1N(C(=O)c1ccc(NC(=O)c3ccccc3-c3ccccc3)cc1O)C2	14.8 nM	3.8	solubility [4]: 1900 µg/mL (≈ 3410 µM)
Cc1ccc(F)cc1C(=O)Nc1ccc(C(=O)N2Cc3ccc(C(=O)O)n3Cc3ccccc32)c(Cl)c1	–	–	Ratio (Rattus norvegicus [6]): inactive
CN(C)CCN(C)Cc1ccc2n1Cc1ccccc1N(C(=O)c1ccc(NC(=O)c3ccccc3-c3ccccc3)cc1Cl)C2	2.6 nM	4.2	–
Cc1ccc(F)cc1C(=O)Nc1ccc(C(=O)N2Cc3cccn3Cc3ccccc32)c(Cl)c1 [LIXIVAPTAN]	–	7.4	–
CN(C)C1CCN(C(=O)c2ccc3n2Cc2ccccc2N(C(=O)c2ccc(NC(=O)c4ccccc4-c4ccccc4)cc2Cl)C3)CC1	8.8 nM	–	–
CN(C)C1CCN(Cc2ccc3n2Cc2ccccc2N(C(=O)c2ccc(NC(=O)c4ccccc4-c4ccccc4)cc2Cl)C3)CC1	2 nM	2.3	–
CN1CCN(Cc2ccc3n2Cc2ccccc2N(C(=O)c2ccc(NC(=O)c4ccccc4-c4ccccc4)cc2Cl)C3)CC1	1.3 nM	3.75	–
